Results taken from publication PMC5484485, “In vitro and in vivo effects of kisspeptin antagonists p234, p271, p354, and p356 on GPR54 activation” (PLoS ONE, 2017).
Square brackets hold non-standard residues; d marks the D form. Ends that are not written are not given here.

Legend:
[1] = target: T1, human GPR54 (Homo sapiens, UniProt Q969F8); experiment: Flow cytometric calcium flux assay, KP10-induced response after 15 min pre-incubation with antagonist; format: cell-based; set-up: host or cells: rat hematopoietic CHEM1 cells expressing endogenous Galpha15; settings: all concentrations 10^-13 to 10^-5 M; 10^-8 M KP10; 15 min pre-incubation; P = 1.00
Procedure: In vitro analyses of the effects of kisspeptin and kisspeptin antagonists, were performed using HT[…] cells (rat hematopoietic CHEM1 cells expressing endogenous Gα15 and, stably expressing the human GPR54 receptor (Millipore BV, the Netherlands), CHEM1-GPR54. Cells were counted and suspended in HBSS+++ at a concentration of 5*10^6 cells/ml. To load the cells with the fluorescent dye ester they were incubated in HBSS+++ adjusted to a concentration of 2 μM Fluo-3 AM (Molecular Probes, Life Technologies, the Netherlands) for 1h at 37°C under agitation in the dark. After incubation, the cells were washed by adding HBSS+++ to a volume of 10 ml followed by centrifugation (5 min, 150 x g) to remove excess of Fluo-3AM. […] Thereafter the tube was removed briefly and 25 μl peptide (see below) was added, after which aspiration and analysis continued. For statistical analyses fluorescent data recorded during the time interval 30-60 seconds after initiation of measurement were used. […] We then assessed whether these antagonists could compete with KP10 for its receptor. […] For this purpose 25 μl quantities of the antagonists were added to 200 μl of Fluo-3 AM labelled cells (10^6 cells/ml) and incubated for 15 min. […] Peptides p354 and p356 were tested three times with both human and canine KP10; while peptides p234 and p271 were tested three times with human KP10 and once with canine KP10. To analyze the effects of different concentrations of the KP antagonists on the calcium response due to KP10 addition, the differences in fluorescence before and after KP10 were calculated (the calcium response). The calcium response ratios were calculated as the calcium response of the CHEM1-GPR54 cells pre-incubated with different concentrations of KP antagonist and the control (the calcium response of the cells without KP antagonist). These calcium response ratios were log transformed and used for further analysis by univariate analysis of variance, with the Dunnett's test as post hoc test. The calcium response ratios were set as dependent variables and the different concentrations of the antagonists and the two types of KP10 were used as fixed factors. The residuals were normally distributed.

[2] = tested on: kisspeptin receptor; settings: ref unpublished data; cited from earlier work
Procedure: The following peptides were tested for antagonistic properties on the kisspeptin receptor: p234 ((D-Ala)-Asn-Trp-Asn-Gly-Phe-Gly-(D-Trp)-Arg-Phe-NH2), p271 (Arg-Arg-Met-Lys-Trp-Lys-Lys-Tyr-(D-Ala)-Asn-Trp-Asn-Gly-Phe-Gly-(D-Trp)-Arg-Phe-NH2), p354 ((D-Ala)-Tyr-Asn-Phe-Asn-Gly-Phe-Gly-(D-Trp)-Arg-Phe-NH2), and p356 ((D-Ala)-Tyr-Asn-Trp-Asn-Gly-Phe-Gly-(D-Trp)-Lys-Phe-NH2). Peptide 354 and p356 are next generation analogs refining p234.

[3] = target: T1, human GPR54; experiment: Flow cytometric calcium flux assay, response to peptide alone (agonist / intrinsic activity); format: cell-based; set-up: host or cells: rat hematopoietic CHEM1 cells expressing endogenous Galpha15; settings: 10^-13 to 10^-5 M, n = 3; for intrinsic calcium response: any tested concentration; for EC50: CHEM1-GPR54 cells in suspension, Fluo-3 AM, flow cytometry
Procedure: In vitro analyses of the effects of kisspeptin and kisspeptin antagonists, were performed using HT[…] cells (rat hematopoietic CHEM1 cells expressing endogenous Gα15 and, stably expressing the human GPR54 receptor (Millipore BV, the Netherlands), CHEM1-GPR54. Cells were counted and suspended in HBSS+++ at a concentration of 5*10^6 cells/ml. To load the cells with the fluorescent dye ester they were incubated in HBSS+++ adjusted to a concentration of 2 μM Fluo-3 AM (Molecular Probes, Life Technologies, the Netherlands) for 1h at 37°C under agitation in the dark. After incubation, the cells were washed by adding HBSS+++ to a volume of 10 ml followed by centrifugation (5 min, 150 x g) to remove excess of Fluo-3AM. […] Thereafter the tube was removed briefly and 25 μl peptide (see below) was added, after which aspiration and analysis continued. For statistical analyses fluorescent data recorded during the time interval 30-60 seconds after initiation of measurement were used. […] Experiments were performed 3 times. Representative flow cytometry results are depicted in Fig 1. […] We then assessed whether these antagonists could compete with KP10 for its receptor. […] For this purpose 25 μl quantities of the antagonists were added to 200 μl of Fluo-3 AM labelled cells (10^6 cells/ml) and incubated for 15 min. […] Peptides p354 and p356 were tested three times with both human and canine KP10; while peptides p234 and p271 were tested three times with human KP10 and once with canine KP10. […] A multivariate general linear model was set up to analyze differences in calcium response between the different concentrations, with Dunnett's test as a post hoc procedure for the antagonists and Bonferroni's test for the agonists.

[4] = tested on: plasma LH concentration; experiment: Plasma LH in anestrous Beagle bitches during antagonist infusion and after cKP10 bolus; format: in vivo, dog; settings: n = 6
Source text: Thirteen adult anestrous Beagle bitches were used for this study. Six dogs with a median age of 89 months (range 43–122 months) were used as control group, receiving cKP10 without an antagonist. Eight dogs with a median age of 52 months (range 31–116 months) were used for the antagonist experiments. One dog was first used in the control group and 12 months later for the antagonist experiments. Of the eight dogs used for the antagonist experiments, four received p271, p354, and p356. In two of the eight dogs both p354 and p356 were tested, while in the remaining two dogs only p271 was tested, in order to test every antagonist in 6 dogs. The time between testing of different kisspeptin antagonists was at least 5 days (range 5–15 days) to ensure that there were no peptide residues. Kisspeptin antagonist p234 per se was not tested in vivo because p271 is in fact p234 with a penetratin tag to enhance passage across the blood-brain barrier, as has been described for use with peripheral administration.
Kisspeptin antagonists (50 μg/kg/h) were administered continuously for three hours via a catheter in the cephalic vein. Two hours after the start of the infusion, a single bolus of cKP10 (0.5 μg/kg) was administered intravenously. Blood samples were collected from the jugular vein by venipuncture at -40 min and 0 min before the antagonist infusion, and then every 30 min for two hours. After the administration of cKP10, blood samples were collected at 10, 20, 40, and 60 min (i.e., 130, 140, 160, and 180 min after the start of the antagonist infusion).
As a control, KP stimulation tests (without the administration of a kisspeptin antagonist) were performed in six dogs. Blood samples were collected from the jugular vein by venipuncture at -40 min and 0 min before, and then at 10, 20, 40, and 60 min after administration of cKP10 (0.5 μg/kg). Plasma LH concentrations were measured in all blood samples.
Plasma LH concentrations were measured with a heterologous radioimmunoassay validated for the dog, as described previously. The intra- and interassay CVs for values above 0.5 μg/l were 2.3 and 10.5%, respectively, and the limit of quantitation was 0.3 μg/l.
In both groups of dogs (experimental and control), the basal plasma LH concentration was calculated for each dog as the mean of the values at –40 and 0 min before cKP10 or antagonist administration. All LH values that exceeded the mean of all basal samples plus 3 SD were attributed to pulsatile secretion and were treated as outliers and excluded from statistical analysis. Log transformation of plasma LH concentrations was used because data were not normally distributed. A linear mixed model was used to analyze differences in plasma LH concentrations before and after KP10, with or without a kisspeptin antagonist (group effects: p271, p354, p356, and controls), with Bonferroni correction. P<0.05 was considered significant.

[5] = target: T2, CHEM1-GPR54 cells (Homo sapiens, UniProt Q969F8); experiment: Preliminary calcium flux assay with adherent CHEM1-GPR54 cells (unpublished); format: cell-based; settings: too few repeats for statistics
T2 construct: host or cells: rat hematopoietic CHEM1 cells expressing endogenous Galpha15

[6] = tested on: circulating LH / puberty; settings: cited from earlier work
Procedure: The development of kisspeptin antagonists contributed to an improved understanding of the role of kisspeptin in the reproductive system. Roseweir et al. developed several KP10 analogues and tested their effect on inositol phosphate (IP) release in Chinese hamster ovarian (CHO) cells stably expressing the human GPR54. […] The kisspeptin antagonists were administered intravenously in a dose of 50 μg/kg/h, and had no effect on either the basal plasma LH concentration during the continuous administration or on the KP10-induced LH response. These findings are in line with a previous study in female dogs. […] Adult male rats received an intrape ...

[7] = target: T1, human GPR54; settings: cited from earlier work
Source text: The development of kisspeptin antagonists contributed to an improved understanding of the role of kisspeptin in the reproductive system. Roseweir et al. developed several KP10 analogues and tested their effect on inositol phosphate (IP) release in Chinese hamster ovarian (CHO) cells stably expressing the human GPR54. […] The peptide antagonists are KP10 analogs with substitutions at several positions, which should result in good receptor binding affinity but reduced receptor activation. None of the peptides tested in the present study prevented or inhibited the KP10-stimulated calcium response and thus receptor activation.

[8] = antagonist 50 μg/kg/h iv, cKP10 0.5 μg/kg iv

T1 sequence (Q969F8 whole entry): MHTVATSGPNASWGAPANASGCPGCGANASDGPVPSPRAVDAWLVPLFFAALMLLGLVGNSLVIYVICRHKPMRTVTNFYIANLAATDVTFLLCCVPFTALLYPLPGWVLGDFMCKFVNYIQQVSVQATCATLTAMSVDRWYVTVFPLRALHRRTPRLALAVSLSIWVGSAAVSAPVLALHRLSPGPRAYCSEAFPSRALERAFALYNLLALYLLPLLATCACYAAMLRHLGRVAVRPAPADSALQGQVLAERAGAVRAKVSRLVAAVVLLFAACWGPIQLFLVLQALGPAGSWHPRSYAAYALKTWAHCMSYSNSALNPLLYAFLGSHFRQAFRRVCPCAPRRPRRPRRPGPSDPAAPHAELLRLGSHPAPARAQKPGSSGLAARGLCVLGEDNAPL
T2 sequence (Q969F8 whole entry): as above

Molecule: [dA]YNFNGFG[dW]RF-NH2 [p354]
- difference in calcium response ratio between controls and antagonist [1]: not significant
- binding and inhibition of kisspeptin action on inositol generation, potency range [2]: nanomolar range
- intrinsic calcium response [3]: no significant intrinsic calcium response
- Median (and range) plasma LH, t = 30 ([4]; 30 min of antagonist infusion 50 μg/kg/h iv): 3.7 (2.1–13.1) μg/L
- Median (and range) plasma LH, t = 60 ([4]; 60 min of antagonist infusion 50 μg/kg/h iv): 3.2 (2.2–7.2) μg/L
- Median (and range) plasma LH, t = 120 ([4]; 120 min of antagonist infusion 50 μg/kg/h iv, before cKP10): 5.2 (2.6–15.7) μg/L
- median maximum increment in plasma LH concentration after cKP10 during antagonist administration [4, 8]: 8.1 µg/L
- range of maximum increment in plasma LH concentration after cKP10 during antagonist administration [4, 8]: 5.0 to 12.5 µg/L
- Median (and range) plasma LH, t = 130 / t = 10* ([4]; antagonist infusion 50 μg/kg/h iv, 10 min after cKP10 0.5 μg/kg iv): 13.5 (8.4–20.3) μg/L
- Median (and range) plasma LH, t = 140 / t = 20* ([4]; antagonist infusion 50 μg/kg/h iv, 20 min after cKP10 0.5 μg/kg iv): 10.0 (5.5–13.0) μg/L
- Median (and range) plasma LH, t = 160 / t = 40* ([4]; antagonist infusion 50 μg/kg/h iv, 40 min after cKP10 0.5 μg/kg iv): 6.4 (4.7–9.1) μg/L
- Median (and range) plasma LH, t = 180 / t = 60* ([4]; antagonist infusion 50 μg/kg/h iv, 60 min after cKP10 0.5 μg/kg iv): 4.7 (3.7–9.9) μg/L
- Median (and range) plasma LH, Basal ([4]; before antagonist infusion (mean of -40 and 0 min per dog)): 4.2 (2.8–6.7) μg/L
- effect on basal plasma LH concentration ([4]; continuous iv 50 μg/kg/h, anestrous bitches): did not cause significant alterations

Molecule: [dA]NWNGFG[dW]RF-NH2 [p234, kisspeptin antagonist, KP10 analog]
- difference in calcium response ratio between controls and antagonist [1]: not significant
- inhibition of KP10-induced calcium response, adherent cells [5]: could not be inhibited
- effect of antagonist alone on basal plasma LH ([6]; intact rats and mice): did not lower the basal plasma LH concentration
- effect on circulating LH when co-administrated with KP10 ([6]; intracerebroventricular): prevented an increase in the circulating LH concentration
- effect on vaginal opening (indicator of puberty) ([6]; rats, intracerebroventricular): delayed vaginal opening
- intrinsic calcium response [3]: no significant intrinsic calcium response
- inhibitory effect on IP release in vitro, rank among KP10 analogues ([7]; CHO cells stably expressing human GPR54): most potent inhibitory effect
- inhibition of KP10-induced inositol phosphate (IP) production ([7]; CHO cells that express GPR54): 93%

Molecule: CC(C)C[C@H](NC(=O)CNC(=O)[C@H](Cc1ccccc1)NC(=O)[C@H](CO)NC(=O)[C@H](CC(N)=O)NC(=O)[C@H](Cc1c[nH]c2ccccc12)NC(=O)[C@H](CC(N)=O)NC(=O)[C@@H](N)Cc1ccc(O)cc1)C(=O)N[C@@H](CCCNC(=N)N)C(=O)N[C@@H](Cc1ccccc1)C(N)=O [hKP10, Tyr-Asn-Trp-Asn-Ser-Phe-Gly-Leu-Arg-Phe-NH2, reference compound]
- EC50 [3]: 1.2 nM

Molecule: YNWNVFGLRY-NH2 [cKP10, Tyr-Asn-Trp-Asn-Val-Phe-Gly-Leu-Arg-Tyr-NH2, reference compound]
- EC50 [3]: 8 nM
